Assay results from patent US6583090B1, “Hetaryl-substituted benzyl phenyl ethers, method for the production thereof, and their use for combating harmful fungi and animal pests” (priority 1998, dated 2003).

Tested on: Puccinia recondita
Assay: Curative activity against Puccinia recondita on wheat (leaf rust of wheat)
Type: in vivo, Puccinia recondita on wheat c.v. Frühgold
Details: 16 ppm, sprayed the day after infection, 7 days in greenhouse, untreated plants 80% infection
Method: The active ingredients, separately or together, were prepared as a 10% strength emulsion in a mixture of 70% by weight of cyclohexanone, 20% by weight of Nekanil® LN (Lutensol® AP6, wetting agent having emulsifying and dispersant action based on ethoxylated alkylphenols) and 10% by weight of Wettol® EM (nonionic emulsifier based on ethoxylated castor oil) and diluted with water to the desired concentration.
Leaves of potted wheat seedlings c.v. “Frühgold” were dusted with leaf rust spores (Puccinia recondite). The pots were then placed for 24 hours into a chamber with high atmospheric humidity (90 to 95%) at 20 to 25° C. During this time, the spores germinated, and the germinal tubes penetrated the leaf tissue. The next day, the infected plants were sprayed to runoff point with an aqueous spray liquor which had been prepared using a stock solution of 10% of active ingredient, 63% of cyclohexanone and 27% of emulsifier. After the spray coating had dried on, the test plants were cultivated for 7 days in a greenhouse at from 20 to 22° C. and a relative atmospheric humidity of 65 to 70%. The extent of rust development on the leaves was then determined.

| Compound | % infection (rust development on the leaves) |
| --- | --- |
| CON=C(C(=O)OC)c1ccccc1COc1ccc(-n2nc(C)cc2C)cc1Cl [I-12, methyl 2-{2-chloro-[4-(3,5-dimethyl)-pyrazol-1-yl]phenoxymethylene}phenylglyoxylate O-methyloxime] | no infection |
| CNC(=O)C(=NOC)c1ccccc1COc1ccc(-n2nc(C)cc2C)cc1Cl [I-11, N-methyl-2-{2-chloro-[4-(3,5-dimethyl)pyrazol-1-yl]phenoxymethylene}-phenylglyoxamide O-methyloxime] | no infection |
